Experimental data from ChEMBL document CHEMBL1201862, “PubChem BioAssay data set” (2004).
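Interpolation was linear, between the two tested concentrations surrounding the appropriate level; five concentrations were tested over 48 hours in 96-well plates. GI50 marks 50% less growth.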 The source made the active and inactive calls. Rule as the data show it: active = GI50 up to about 1.1 µM and inactive = higher.

What was measured:
Assay in all cases: inhibition of tumour cell growth, NCI panel, 48 h
CAKI-1 = tested on: CAKI-1
COLO 205 = tested on: COLO 205
EKVX = tested on: EKVX
HCT-15 = tested on: HCT-15
HOP-62 = tested on: HOP-62
K562 = tested on: K562
KM12 = tested on: KM12
M14 = tested on: M14
NCI-H226 = tested on: NCI-H226
NCI-H522 = tested on: NCI-H522
RPMI-8226 = tested on: RPMI-8226
RXF 393 = tested on: RXF 393
SF-268 = tested on: SF-268
SK-MEL-28 = tested on: SK-MEL-28
SK-MEL-5 = tested on: SK-MEL-5
SN12C = tested on: SN12C
UACC-257 = tested on: UACC-257
TK-10 = tested on: TK-10
MDA-MB-231 = tested on: MDA-MB-231

Structure (SMILES)	GI50 (CAKI-1)	GI50 (COLO 205)	GI50 (EKVX)	GI50 (HCT-15) [µM]	GI50 (HOP-62)	GI50 (K562)	GI50 (KM12)	GI50 (M14)	GI50 (NCI-H226)	GI50 (NCI-H522)	GI50 (RPMI-8226)	GI50 (RXF 393)	GI50 (SF-268)	GI50 (SK-MEL-28)	GI50 (SK-MEL-5)	GI50 (SN12C)	GI50 (UACC-257)	GI50 (TK-10)	GI50 (MDA-MB-231)
CNC(=O)OCc1nc(SC(C)C)n(C)c1COC(=O)NC	> 72.3 µM (inactive)	> 100 µM (inactive)	> 100 µM (inactive)	> 100	> 100 µM (inactive)	> 69.8 µM (inactive)	> 100 µM (inactive)	> 100 µM (inactive)	> 100 µM (inactive)	58.5 µM (inactive)	> 71.1 µM (inactive)	33.4 µM (inactive)	> 91.6 µM (inactive)	> 100 µM (inactive)	> 100 µM (inactive)	> 100 µM (inactive)	> 100 µM (inactive)		
O=C1CCCCC/C=C2/CC[C@H](Sc3ccccc3)[C@@H]12		> 100 µM (inactive)	38.3 µM (inactive)	> 100	37.3 µM (inactive)	> 100 µM (inactive)	87.1 µM (inactive)	> 100 µM (inactive)	> 100 µM (inactive)		> 100 µM (inactive)	37.8 µM (inactive)	88.5 µM (inactive)	> 100 µM (inactive)	> 100 µM (inactive)	> 100 µM (inactive)	> 100 µM (inactive)	49.9 µM (inactive)	
CC1NOC(=O)C1/N=N/c1ccccc1Br (stereo not given)	16.8 µM (inactive)	20.6 µM (inactive)	34.2 µM (inactive)	28.4	43.9 µM (inactive)	22.9 µM (inactive)	21.2 µM (inactive)	21.4 µM (inactive)	31.6 µM (inactive)	18.5 µM (inactive)	28.8 µM (inactive)	13.9 µM (inactive)	28.4 µM (inactive)	31 µM (inactive)	15.3 µM (inactive)	24.5 µM (inactive)	24 µM (inactive)	24.5 µM (inactive)	
N/N=C1/C(=O)N(c2ccc(Cl)cc2)C(=O)C(=O)C1c1nc2ccccc2s1 (stereo not given)	> 68.2 µM (inactive)	> 100 µM (inactive)	> 100 µM (inactive)	72.1	> 100 µM (inactive)	60.3 µM (inactive)	> 100 µM (inactive)	> 100 µM (inactive)		> 100 µM (inactive)	> 100 µM (inactive)	> 100 µM (inactive)	> 100 µM (inactive)	> 100 µM (inactive)	> 100 µM (inactive)	> 100 µM (inactive)	> 100 µM (inactive)	> 100 µM (inactive)	
CN/N=C(/CC(=O)c1sc(-n2nc(-c3ccccc3)cc2-c2ccccc2)nc1C)C(=O)Nc1ccc(Cl)c(Cl)c1	14.7 µM (inactive)	28.9 µM (inactive)	0.787 µM (active)	31.3	19.4 µM (inactive)	20.4 µM (inactive)	41.7 µM (inactive)		17.2 µM (inactive)	28.1 µM (inactive)	40.1 µM (inactive)	26.2 µM (inactive)	35.2 µM (inactive)	55.1 µM (inactive)	18 µM (inactive)	66.5 µM (inactive)	30.6 µM (inactive)		
IC[P+]1(c2ccccc2)CCCC1		14 µM (inactive)	16.7 µM (inactive)	4.15	38.2 µM (inactive)	35.9 µM (inactive)	32.5 µM (inactive)	46.5 µM (inactive)	24.2 µM (inactive)	8.36 µM (inactive)	29.8 µM (inactive)	76.7 µM (inactive)		50 µM (inactive)	19.1 µM (inactive)	14.3 µM (inactive)	52.4 µM (inactive)	47.3 µM (inactive)	
Cn1cc(C2(C)CC(C)(C)c3c2n(C)c2ccccc32)c2ccccc21 (stereo not given)	> 100 µM (inactive)	> 100 µM (inactive)	> 100 µM (inactive)	> 100	> 100 µM (inactive)	83.8 µM (inactive)	94 µM (inactive)	> 100 µM (inactive)	90.2 µM (inactive)	40.3 µM (inactive)	40.2 µM (inactive)	32.5 µM (inactive)	> 100 µM (inactive)	> 100 µM (inactive)	69.3 µM (inactive)	> 100 µM (inactive)	> 100 µM (inactive)	> 100 µM (inactive)	
COC(=O)CCc1cccnc1/C=N/O	> 100 µM (inactive)	> 100 µM (inactive)	> 100 µM (inactive)	> 100	> 100 µM (inactive)	> 100 µM (inactive)	> 100 µM (inactive)	> 100 µM (inactive)	> 100 µM (inactive)	> 100 µM (inactive)		> 100 µM (inactive)	> 100 µM (inactive)	> 100 µM (inactive)	> 100 µM (inactive)	> 100 µM (inactive)	> 100 µM (inactive)	55.7 µM (inactive)	
COc1cc(/C=C\C(=O)O)ccc1OCc1ccccc1	> 100 µM (inactive)	> 100 µM (inactive)	> 100 µM (inactive)	> 100	> 100 µM (inactive)	> 100 µM (inactive)	0.217 µM (active)	> 100 µM (inactive)		> 100 µM (inactive)	> 100 µM (inactive)	> 100 µM (inactive)	> 100 µM (inactive)	> 100 µM (inactive)	> 100 µM (inactive)	> 100 µM (inactive)	> 100 µM (inactive)	> 100 µM (inactive)	> 100 µM (inactive)
CC(=O)NNc1nc(C)c(C(=O)NNC(=O)C(=O)Nc2ccc(C)c(C)c2)s1	> 100 µM (inactive)	> 100 µM (inactive)	> 100 µM (inactive)	78.9	> 100 µM (inactive)	52.6 µM (inactive)	42.5 µM (inactive)	> 100 µM (inactive)	> 100 µM (inactive)	18.5 µM (inactive)	50.9 µM (inactive)	> 100 µM (inactive)	> 100 µM (inactive)	> 100 µM (inactive)	> 100 µM (inactive)	> 100 µM (inactive)	> 100 µM (inactive)	> 100 µM (inactive)	
NC(=O)Cn1c(=O)oc2cc(C(=O)CN3CCOCC3)ccc21	> 100 µM (inactive)	> 100 µM (inactive)	> 100 µM (inactive)		> 100 µM (inactive)	> 100 µM (inactive)	> 100 µM (inactive)	> 100 µM (inactive)	> 100 µM (inactive)		> 100 µM (inactive)	> 100 µM (inactive)	> 100 µM (inactive)	> 100 µM (inactive)	> 100 µM (inactive)	> 100 µM (inactive)			> 100 µM (inactive)
CC(=O)NC1C(OCc2ccccc2)OC(COC(=O)CCCCCCCCCCNC(=O)CCNc2ccc([N+](=O)[O-])c3[nH]c4ccc(O)cc4c(=O)c23)C(O)C1OC(C)C(=O)N[C@H](C(=O)N[C@H](CCC(=O)O)C(N)=O)C(C)C (stereo not given in full)	> 100 µM (inactive)	32.4 µM (inactive)	96.8 µM (inactive)	> 100	> 100 µM (inactive)	76.9 µM (inactive)	63.4 µM (inactive)	48.5 µM (inactive)	36.3 µM (inactive)	17.4 µM (inactive)	19.2 µM (inactive)	69.3 µM (inactive)	> 100 µM (inactive)	> 100 µM (inactive)	> 100 µM (inactive)	64 µM (inactive)	> 100 µM (inactive)	> 100 µM (inactive)	
CC(C)=CC1CCc2ccccc2N1S(=O)(=O)c1ccc(C)cc1 (stereo not given)		1.06 µM (active)	10.6 µM (inactive)	1.09	2.57 µM (inactive)	0.59 µM (active)	0.624 µM (active)	1.27 µM (inactive)	1.77 µM (inactive)	1.52 µM (inactive)	1.32 µM (inactive)	1.24 µM (inactive)	2.93 µM (inactive)	1.96 µM (inactive)	0.589 µM (active)	2.99 µM (inactive)	2.27 µM (inactive)	2.81 µM (inactive)	
c1ccc(OCCSCCCCCCCCCCSCCOc2ccccc2)cc1		> 100 µM (inactive)	16.9 µM (inactive)	> 100	24.7 µM (inactive)	> 100 µM (inactive)	> 100 µM (inactive)	> 100 µM (inactive)	> 100 µM (inactive)	> 100 µM (inactive)	> 100 µM (inactive)	> 100 µM (inactive)	> 100 µM (inactive)	> 100 µM (inactive)	28.9 µM (inactive)	> 100 µM (inactive)	> 100 µM (inactive)	16.9 µM (inactive)	
O=C(Nc1ccccc1)O/N=C1/CCCC/C1=C\c1ccccc1	15.7 µM (inactive)	14.5 µM (inactive)		11.3	21.9 µM (inactive)	10 µM (inactive)		17.8 µM (inactive)	24.9 µM (inactive)	16.4 µM (inactive)	16.5 µM (inactive)	16.3 µM (inactive)	15.6 µM (inactive)	17.6 µM (inactive)	13 µM (inactive)	16.3 µM (inactive)	19.5 µM (inactive)	17.9 µM (inactive)	
CC12CCC(C)(c3cc(O)c(O)cc31)c1cc(O)c(O)cc12	11.2 µM (inactive)	16.5 µM (inactive)	25.1 µM (inactive)	13.7	26.7 µM (inactive)	7.06 µM (inactive)	17.1 µM (inactive)	17.2 µM (inactive)		2.29 µM (inactive)	8.51 µM (inactive)	16.1 µM (inactive)	18.2 µM (inactive)	16.4 µM (inactive)	17.7 µM (inactive)	21.8 µM (inactive)	15.3 µM (inactive)	19.8 µM (inactive)	
C=C1C(=O)OC2C1CC[C@H](C)C1(O)C(O)CC(=O)[C@@]21C (stereo not given in full)	27.7 µM (inactive)	16.3 µM (inactive)	19.5 µM (inactive)			14.3 µM (inactive)	17.3 µM (inactive)		21.7 µM (inactive)		22.1 µM (inactive)	> 10 µM (inactive)	23.3 µM (inactive)	13.6 µM (inactive)	16.7 µM (inactive)	22 µM (inactive)	14.4 µM (inactive)	> 10 µM (inactive)	
